Measured values as given in US6376209B2, “Increasing the FVII sensitivity of a thromboplastin reagent” (Dade Behring Marburg GmbH, priority 1997, dated 2002).
Where a SMILES comes first, the peptide text is derived from it. [ ]: non-standard residue; d: D form. The star is where a group is joined. Sta = CC(C)C[C@H](N)[C@@H](O)CC(=O)O; Isovaleryl = CC(C)CC(=O)*

Experiments:
Assay type in all cases: biochemical
FVII-deficient plasma [1] = assay: Quick's thromboplastin time (PT), Schnitger & Gross; design: Coagulation time, Sample: FVII: unit not given beside the values; conditions: for Coagulation time FVII-MP / FVII sens.: FVII-MP/100%: 0.5 sec; for Coagulation time, Sample: FVII / FVII sens.: FVII/100%: ascorbic acid 1 mM, Fe(II)SO4 or CuCl 0.01 mM, stabilization after 6 h (iron: after 1 h)
Procedure: (§1) Quick's thromboplastin time (PT) was then determined using a Schnitger & Gross as follows:
(§2) Heat reagents and tubes to 37° C.;
(§3) Introduce […] of control plasma N or FVII-deficient plasma into the tubes;
(§4) Incubate for 1 min in the thermoblock;
(§5) Add 200 μl of thromboplastin and at the same time start the measuring operation; shake the tube briefly and place it in the measuring position of the Schnitger & Gross, and insert the electrode holder up to the limit stop;
(§6) Read off the coagulation time.
(§7) Quick's thromboplastin time (PT) is then determined using a Schnitger & Gross as follows:
(§8) Introduce 100 μl of plasma into the tubes;
(§9) Add 200 μl of thromboplastin and at the same time start the measuring operation;
(§10) shake the tube briefly, place it in the measuring position of the Schnitger & Gross, and insert the electrode holder up to the limit stop;

control plasma Patho II [2] = assay: as above
Procedure: as §7, §2, §8, §4, §9, §10, §6
The spread was calculated from the ratio of the coagulation times for the dilution of the StHPl and the StHPl, and the FVII sensitivity was calculated from the ratio of the coagulation times for FVII-MP and STHPL.
(§11) Standard human plasma, the control plasma Patho II and an FVII-deficient plasma were used as samples. The reagents were stored at 4° C. and 37° C. and the coagulation time was repeated after 7 and 14 days. The spread was calculated from the ratio of the coagulation times of the Patho II and the StHPl, and the FVII sensitivity was calculated from the ratio of the coagulation times for FVII-MP and the STHPL.

Standard human plasma [3] = assay: as above; conditions: for Coagulation time 100%: 0.5 sec; for Coagulation time, Sample: 100%: ascorbic acid 1 mM, stabilization after 6 h (iron: after 1 h)
Procedure: as §1, §2, §3, §4, §5, §6, §7, §8, §9, §10

control plasma Patho II [4] = assay: PT, Behring Coagulation Timer (PT.sec Thromborel S); conditions: 0.75 sec, incubated 37° C., 90 min
Procedure: (§12) The coagulation time was determined using a Behring Coagulation Timer (PT.sec Thromborel S). Standard human plasma, the. control plasma Patho II (Behringwerke AG) and an FVII-deficient plasma were employed as samples. The spread was calculated from the ratio of the coagulation times of the Patho II and the StHPl, and the FVII sensitivity was calculated from the ratio of the coagulation times for FVII-MP and STHPL.
as §12, with “plasma, the” for “plasma, the.”, “II” for “II (Behringwerke AG)”, “spread as” for “spread was”
(§13) Thromborel S Bulkware according to Example 8a) was short-time heated at a temperature of 120° C. using a dwell time of 0.75 sec and then adjusted to pH 7.5 with 0.16 mM sodium carbonate; different concentrations of chloramine T were subsequently added and the mixtures were incubated at 37° C. for 90 min. Stabilizers and 6 mM acetylcysteine were added to the solution. The pH value was adjusted to 6.5 and the coagulation time was determined using a Behring Coagulation Timer (PT.sec Thromborel S).
as §11, with “samples.” for “samples. The reagents were stored at 4° C. and 37° C. and the coagulation time was repeated after 7 and 14 days.”, “for the” for “for”

Standard human plasma [5] = assay: as above; conditions: 0.75 sec, incubated 37° C., 90 min
Procedure: as §13
as §11, with “samples.” for “samples. The reagents were stored at 4° C. and 37° C. and the coagulation time was repeated after 7 and 14 days.”, “for the” for “for”

FVII-deficient plasma [6] = assay: as above; conditions: 0.75 sec, incubated 37° C., 90 min
Procedure: as §13
as §11, with “samples.” for “samples. The reagents were stored at 4° C. and 37° C. and the coagulation time was repeated after 7 and 14 days.”, “for the” for “for”

[7] = 0.7 mg/l added to Thromborel S heated 95° C.
[8] = 0.7 mg/l added to Thromborel S heated 95° C., 0.5 sec
[9] = reagent stored 18 h/4° C., ascorbic acid 1 mM, Fe(II)SO4 or CuCl 0.01 mM, stabilization after 6 h (iron: after 1 h)
[10] = reagent stored 7 days 4° C., ascorbic acid 1 mM, Fe(II)SO4 or CuCl 0.01 mM, stabilization after 6 h (iron: after 1 h)
[11] = reagent stored 7 days 37° C., ascorbic acid 1 mM, Fe(II)SO4 or CuCl 0.01 mM, stabilization after 6 h (iron: after 1 h)
[12] = 0.001 mM added to Thromborel S heated 120° C.
[13] = 0.01 mM added to Thromborel S heated 120° C.
[14] = 0.1 mM added to Thromborel S heated 120° C.
[15] = 0.01 mM added to Thromborel S heated 95° C.
[16] = 0.025 mM added to Thromborel S heated 95° C.
[17] = 0.05 mM added to Thromborel S heated 95° C.
[18] = 0.1 mM added to Thromborel S heated 95° C.
[19] = 0.5 mM added to Thromborel S heated 95° C.
[20] = 0.01 mM added to Thromborel S heated 95° C., 0.5 sec
[21] = 0.025 mM added to Thromborel S heated 95° C., 0.5 sec
[22] = 0.05 mM added to Thromborel S heated 95° C., 0.5 sec
[23] = 0.1 mM added to Thromborel S heated 95° C., 0.5 sec
[24] = 0.5 mM added to Thromborel S heated 95° C., 0.5 sec

## CC(C)CC(=O)N[C@H](C(=O)N[C@H](C(=O)N[C@@H](CC(C)C)[C@@H](O)CC(=O)N[C@@H](C)C(=O)N[C@@H](CC(C)C)[C@@H](O)CC(=O)O)C(C)C)C(C)C [Pepstatin] (Isovaleryl-VV[Sta]A[Sta]-OH)
FVII-deficient plasma [1]; [7]
  Coagulation time FVII-MP: 115 s
  FVII sens.: FVII-MP/100%: 10.9
Control plasma Patho II [2]; [8]
  Coagulation time Patho II: 21.6 s
  Spread: Patho II/100%: 2.0
Standard human plasma [3]; [7]
  Coagulation time 100%: 10.6 s

## O=C1O[C@H]([C@@H](O)CO)C(O)=C1O [ascorbic acid]
FVII-deficient plasma [1]; reagent stored 18 h/4° C.
  Coagulation time, Sample: FVII: 157.7
  FVII sens.: FVII/100%: 11.5
FVII-deficient plasma [1]; reagent stored 7 days 4° C.
  Coagulation time, Sample: FVII: 154.3
  FVII sens.: FVII/100%: 11.0
FVII-deficient plasma [1]; reagent stored 7 days 37° C.
  Coagulation time, Sample: FVII: 181.1
  FVII sens.: FVII/100%: 12.3
FVII-deficient plasma [1]; reagent stored 14 days 4° C.
  Coagulation time, Sample: FVII: 161.6
  FVII sens.: FVII/100%: 11.5
FVII-deficient plasma [1]; reagent stored 14 days 37° C.
  Coagulation time, Sample: FVII: 195.8
  FVII sens.: FVII/100%: 12.8
Control plasma Patho II [2]; [9]
  Coagulation time, Sample: Patho II: 51.4
  Spread: Patho II/100%: 3.8
Control plasma Patho II [2]; [10]
  Coagulation time, Sample: Patho II: 51.3
  Spread: Patho II/100%: 3.7
Control plasma Patho II [2]; [11]
  Coagulation time, Sample: Patho II: 51.5
  Spread: Patho II/100%: 3.5
Control plasma Patho II [2]; reagent stored 14 days 4° C., ascorbic acid 1 mM, Fe(II)SO4 or CuCl 0.01 mM, stabilization after 6 h (iron: after 1 h)
  Coagulation time, Sample: Patho II: 51.1
Control plasma Patho II [2]; reagent stored 14 days 37° C., ascorbic acid 1 mM, Fe(II)SO4 or CuCl 0.01 mM, stabilization after 6 h (iron: after 1 h)
  Coagulation time, Sample: Patho II: 53.1
Standard human plasma [3]; reagent stored 18 h/4° C., Fe(II)SO4 or CuCl 0.01 mM in Thromborel S heated 85° C., 3 sec
  Coagulation time, Sample: 100%: 13.7
Standard human plasma [3]; reagent stored 7 days 4° C., Fe(II)SO4 or CuCl 0.01 mM
  Coagulation time, Sample: 100%: 14
Standard human plasma [3]; reagent stored 7 days 37° C., Fe(II)SO4 or CuCl 0.01 mM
  Coagulation time, Sample: 100%: 14.7
Standard human plasma [3]; reagent stored 14 days 4° C., Fe(II)SO4 or CuCl 0.01 mM
  Coagulation time, Sample: 100%: 14.1
Standard human plasma [3]; reagent stored 14 days 37° C., Fe(II)SO4 or CuCl 0.01 mM
  Coagulation time, Sample: 100%: 15.3

## Cc1ccc(S(=O)(=O)[N-]Cl)cc1.[Na+] [chloramine T]
Control plasma Patho II [4]; [12]
  Coagulation time Patho II: 34.2 s
  Spread Patho II/100%: 3.0
Control plasma Patho II [4]; [13]
  Coagulation time Patho II: 34.7 s
  Spread Patho II/100%: 3.0
Control plasma Patho II [4]; [14]
  Coagulation time Patho II: 38.2 s
  Spread Patho II/100%: 2.9
Standard human plasma [5]; [12]
  Coagulation time 100%: 11.5 s
Standard human plasma [5]; [13]
  Coagulation time 100%: 11.7 s
Standard human plasma [5]; [14]
  Coagulation time 100%: 13 s
FVII-deficient plasma [6]; [12]
  Coagulation time FV-MP: 140.1 s
  FVII-sens. FVII-MP/100%: 12.2
FVII-deficient plasma [6]; [13]
  Coagulation time FV-MP: 141.6 s
  FVII-sens. FVII-MP/100%: 12.1
FVII-deficient plasma [6]; [14]
  Coagulation time FV-MP: 177.4 s
  FVII-sens. FVII-MP/100%: 13.6

## Nc1ccc(CS(=O)(=O)F)cc1 [pa-PMSF, 4-aminophenylmethanesulfonyl fluoride]
FVII-deficient plasma [1]; [15]
  Coagulation time FVII-MP: 144 s
  FVII sens.: FVII-MP/100%: 13.6
FVII-deficient plasma [1]; [16]
  Coagulation time FVII-MP: 147 s
  FVII sens.: FVII-MP/100%: 13.8
FVII-deficient plasma [1]; [17]
  Coagulation time FVII-MP: 161 s
  FVII sens.: FVII-MP/100%: 15.2
FVII-deficient plasma [1]; [18]
  Coagulation time FVII-MP: 172 s
  FVII sens.: FVII-MP/100%: 16.1
FVII-deficient plasma [1]; [19]
  Coagulation time FVII-MP: 298 s
  FVII sens.: FVII-MP/100%: 27.6
Control plasma Patho II [2]; [20]
  Coagulation time Patho II: 22.3 s
  Spread: Patho II/100%: 2.1
Control plasma Patho II [2]; [21]
  Coagulation time Patho II: 21.8 s
  Spread: Patho II/100%: 2.1
Control plasma Patho II [2]; [22]
  Coagulation time Patho II: 22.2 s
  Spread: Patho II/100%: 2.1
Control plasma Patho II [2]; [23]
  Coagulation time Patho II: 21.7 s
  Spread: Patho II/100%: 2.0
Control plasma Patho II [2]; [24]
  Coagulation time Patho II: 23.i
  Spread: Patho II/100%: 2.1
Standard human plasma [3]; [15]
  Coagulation time 100%: 10.6 s
Standard human plasma [3]; [16]
  Coagulation time 100%: 10.6 s
Standard human plasma [3]; [17]
  Coagulation time 100%: 10.6 s
Standard human plasma [3]; [18]
  Coagulation time 100%: 10.7 s
Standard human plasma [3]; [19]
  Coagulation time 100%: 10.8 s
